Measured values reported in EP2305680A2, “Novel salts of (1S,4R)-cis-4-[2-amino-6-(cyclopropylamino)-9H-purin-9-yl]-2-cyclopentene-1-methanol” (AUROBINDO PHARMA LIMITED, priority 2009, dated 2011).
Converted amounts (≈) assume the structure as drawn. Where two headings read alike, the source gives them in different places.

Assay: saturation solubility in various solvent systems
Format: physicochemical
Method: Solubility is the property of a solid, liquid, or gaseous chemical substance called solute to dissolve in a liquid solvent to form a homogeneous solution of the solute in the solvent. […] The saturation solubility of the compounds according to the present invention is measured in various solvent systems including simulated gastric fluid, pH 4.5 buffer, pH 6.8 buffer solution and pH 7.2 buffer solution. The compounds according to the present invention show better solubility as compared to abacavir sulphate in all solvent systems. Table- 1: Comparison of saturation solubility of Abacavir malonate with Abacavir sulphate (marketed salt)

[1] = solvent: pH 4.5 Sodium acetate buffer
[2] = solvent: pH 6.8 Phosphate buffer
[3] = solvent: pH 7.2 Phosphate buffer

Row | Compound | Solubility (0.01n hcl, solvent: O.O1N HC1, read-out: Solubility) | Solubility (0.1n hcl, simulated gastric fluid, thermodynamic from solid, solvent: O.1N HC1, read-out: Solubility) | Solubility (solvent: Water) | Solubility [1] | Solubility [2] | Solubility [3] | Solubility (0.1 N HCl, simulated gastric fluid, thermodynamic from solid, solvent: O.1N HC1, read-out: Solubility) | Solubility (water, thermodynamic from solid, solvent: Water, read-out: Solubility)
1 | Nc1nc(NC2CC2)c2ncn([C@H]3C=C[C@@H](CO)C3)c2n1 [Abacavir Malonate, (1S,4R)-4-[2-AMINO-(6-CYCLOPROPYLAMINO)-9H-PURIN-9-YL]-2-CYCLOPENTENE-1-METHANOL MALONATE] | 733 mg/mL (≈ 2560 mM) | 368 mg/mL (≈ 1290 mM) | 116.2 mg/mL (≈ 406 mM) | 403.6 mg/mL (≈ 1410 mM) | 425.2 mg/mL (≈ 1480 mM) | 453.5 mg/mL (≈ 1580 mM) |  | 
2 | Nc1nc(NC2CC2)c2ncn([C@H]3C=C[C@@H](CO)C3)c2n1 [Abacavir Sulphate, reference compound] |  |  |  | 112.6 mg/mL | 89.5 mg/mL | 124.0 mg/mL | 93.1 mg/mL | 89.2 mg/mL
